Like-named read-outs stand apart in the source and are kept apart here. Numbered stars: 1 amine (or outer) side, 2 acyl side, 3 side chain; on linkers, the order of the positions; unused ones are H or OH. Square brackets hold non-standard residues; d marks the D form. Side chains are listed from the residue outwards. Peptide text beside a SMILES is read from it. * marks the point of attachment. C20 diacid = O=C(O)CCCCCCCCCCCCCCCCCCC(=O)*; Phe(4-CH2NH2) = NCc1ccc(C[C@H](N)C(=O)O)cc1; C18 diacid = O=C(O)CCCCCCCCCCCCCCCCC(=O)*; γGlu = O=C(O)[C@H](CCC(=O)[*:2])N[*:1]; Met(O2) = CS(=O)(=O)CC[C@H](N)C(=O)O; αMeD = C[C@](N)(CC(=O)O)C(=O)O; AEEA = NCCOCCOCC(=O)O; Aib = CC(C)(N)C(=O)O
Experiments:
human GCGR = target: T1, human GCGR (Homo sapiens, UniProt P47871); test: cAMP activity assay at the Glucagon receptor (GCGR); assay type: cell-based; conditions: for hGCGR/hGLP1R (hTone): ratio of GCGR EC50 to GLP1R EC50
T1 construct: expressed in transfected cells; growth medium holds Blasticidin and Hygromycin
Method in brief: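 Peptides serially diluted from DMSO (10 points) and added to frozen-stock cells bearing human GLP1R (10,000 cells/well) or GCGR (30,000 cells/well), 1 h at RT, dark. EC50 by four-parameter logistic fit of HitHunter cAMPXS luminescence, read following overnight RT incubation.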

human GLP1R = target: T2, human GLP1R (Homo sapiens, UniProt P43220); test: cAMP activity assay at the GLP-1 receptor (GLP1R); assay type: cell-based
T2 construct: expressed in transfected cells; growth medium holds Blasticidin and Hygromycin
Experimental: Activity of the peptides at the Glucagon receptor (GCGR) and GLP-1 receptor (GLP1R) was measured in a cAMP activity assay.
GCG/GLP-1 receptor co-agonist peptides were dissolved in 100% DMSO (dimethyl sulfoxide) and serially diluted to generate 10 point titrations. The peptide solutions were then transferred into 384-well assay plates (150 nL/well). Assay ready frozen cells expressing human GLP1R or human GCGR were suspended in growth media consisting of DMEM medium (GIBCO®), 10% FBS (GIBCO®), 1×NEAA(GIBCO®), 1×P/S (GIBCO®), 10 ug/mL Blasticidin (GIBCO®) and 200 μg/mL Hygromycin (GIBCO®). […] The cell suspensions (15 μL) were then added to the assay plates containing the peptide solutions (30,000 cells/well for human GCGR; 10,000 cells/well for human GLP1R). The cells were incubated for 1 hour at room temperature in the dark. Production of cAMP was determined using HitHunter™ cAMPXS kits (DiscoverX) following manufacturer protocol. The plates were incubated for overnight at room temperature in the dark. Luminescence was measured using an EnVision Multilabel plate reader (Perkin Elmer). Native GLP-1 and Glucagon (Bachem) are used as control peptides. EC50 values were calculated using uses a 4 parameter logistic fit based on the Levenberg-Marquardt algorithm.

[1] = summary statement: EC50 at each of the glucagon and GLP-1 receptors, read-out: EC50 at the glucagon receptor
[2] = summary statement: EC50 at each of the glucagon and GLP-1 receptors, read-out: EC50 at the GLP-1 receptor

T2 sequence (P43220 24-463): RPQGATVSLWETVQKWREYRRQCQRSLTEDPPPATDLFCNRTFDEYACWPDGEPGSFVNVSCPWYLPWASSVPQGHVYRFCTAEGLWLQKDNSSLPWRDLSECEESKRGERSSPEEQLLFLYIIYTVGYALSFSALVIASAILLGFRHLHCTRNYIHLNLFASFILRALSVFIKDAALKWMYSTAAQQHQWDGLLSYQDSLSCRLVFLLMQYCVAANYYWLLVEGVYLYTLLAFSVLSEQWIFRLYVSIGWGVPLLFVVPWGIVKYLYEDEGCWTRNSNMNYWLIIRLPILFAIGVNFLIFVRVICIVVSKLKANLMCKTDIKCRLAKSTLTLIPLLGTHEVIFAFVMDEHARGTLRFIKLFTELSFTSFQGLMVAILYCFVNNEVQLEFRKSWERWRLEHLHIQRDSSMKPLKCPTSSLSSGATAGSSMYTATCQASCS
T1 sequence (P47871 26-477): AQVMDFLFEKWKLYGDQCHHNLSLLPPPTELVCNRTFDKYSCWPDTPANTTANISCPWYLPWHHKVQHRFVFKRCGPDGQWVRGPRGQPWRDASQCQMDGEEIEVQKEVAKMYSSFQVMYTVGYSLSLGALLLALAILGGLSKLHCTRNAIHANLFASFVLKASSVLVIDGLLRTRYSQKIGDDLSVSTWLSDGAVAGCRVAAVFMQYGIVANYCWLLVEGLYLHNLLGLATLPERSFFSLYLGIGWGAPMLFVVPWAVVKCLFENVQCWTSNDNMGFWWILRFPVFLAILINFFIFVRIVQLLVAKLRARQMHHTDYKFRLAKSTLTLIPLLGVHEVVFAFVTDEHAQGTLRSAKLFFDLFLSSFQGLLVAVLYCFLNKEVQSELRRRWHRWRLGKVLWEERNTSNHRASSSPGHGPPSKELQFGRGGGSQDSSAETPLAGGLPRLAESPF

Row | hGCGR/hGLP1R (hTone) (human GCGR) | EC50 (human GCGR; [1]) [nM] | EC50 (human GLP1R; [2]) [nM] | EC50 (human GCGR; cells expressing human GCGR, cAMP production, buffer with or without 20% human serum (not stated which), read-out: GCGR EC50 human) [nM] | EC50 (human GLP1R; cells expressing human GLP1R, cAMP production, buffer with or without 20% human serum (not stated which), read-out: GLP1R EC50 human) [nM] | SMILES
1 | 4.6 | < 5 | < 5 | – | – | CC(C)C[C@H](NC(=O)[C@H](Cc1ccc(O)cc1)NC(=O)[C@H](CCCCN)NC(=O)[C@H](CO)NC(=O)[C@H](Cc1ccc(O)cc1)NC(=O)[C@H](CC(=O)O)NC(=O)[C@H](CO)NC(=O)[C@@H](NC(=O)[C@H](Cc1ccccc1)NC(=O)[C@@H](NC(=O)CNC(=O)[C@H](CCC(N)=O)NC(=O)C(C)(C)NC(=O)[C@@H](N)Cc1c[nH]cn1)[C@@H](C)O)[C@@H](C)O)C(=O)N[C@@H](CC(=O)O)C(=O)N[C@@H](C)C(=O)N[C@@H](CCCNC(=N)N)C(=O)N[C@@H](C)C(=O)N[C@@H](C)C(=O)N[C@@H](CCC(N)=O)C(=O)N[C@@H](CC(=O)O)C(=O)N[C@@H](Cc1ccccc1)C(=O)N[C@H](C(=O)N[C@@H](Cc1ccc(CNC(=O)COCCOCCNC(=O)COCCOCCNC(=O)CC[C@H](NC(=O)CCCCCCCCCCCCCCCCCCC(=O)O)C(=O)O)cc1)C(=O)N[C@@H](Cc1c[nH]c2ccccc12)C(=O)N[C@@H](CC(C)C)C(=O)N[C@@H](CC(C)C)C(=O)N[C@@H](CC(=O)O)C(=O)N[C@H](C(N)=O)[C@@H](C)O)C(C)C [TP584] (H-H[Aib]QGTFTSDYSKYLDARAAQDFV[Phe(4-CH2NH2)]([AEEA-AEEA-γGlu-C20 diacid])WLLDT-NH2)
2 | >4.0 | < 5 | < 5 | 4.95 | – | CC(C)C[C@H](NC(=O)[C@H](Cc1ccc(O)cc1)NC(=O)[C@H](CCCCN)NC(=O)[C@H](CO)NC(=O)[C@H](Cc1ccc(O)cc1)NC(=O)[C@H](CC(=O)O)NC(=O)[C@H](CO)NC(=O)[C@@H](NC(=O)[C@H](Cc1ccccc1)NC(=O)[C@@H](NC(=O)CNC(=O)[C@H](CCC(N)=O)NC(=O)C(C)(C)NC(=O)[C@@H](N)Cc1c[nH]cn1)[C@@H](C)O)[C@@H](C)O)C(=O)N[C@@H](CC(=O)O)C(=O)N[C@@H](CCC(=O)O)C(=O)N[C@@H](CCCNC(=N)N)C(=O)N[C@@H](C)C(=O)N[C@@H](C)C(=O)N[C@@H](Cc1ccc(CNC(=O)COCCOCCNC(=O)COCCOCCNC(=O)CC[C@H](NC(=O)CCCCCCCCCCCCCCCCCCC(=O)O)C(=O)O)cc1)C(=O)N[C@@H](CC(=O)O)C(=O)N[C@@H](Cc1ccccc1)C(=O)N[C@H](C(=O)N[C@@H](CCC(N)=O)C(=O)N[C@@H](Cc1c[nH]c2ccccc12)C(=O)N[C@@H](CC(C)C)C(=O)N[C@@H](CC(C)C)C(=O)N[C@@H](CCCCN)C(=O)N[C@H](C(N)=O)[C@@H](C)O)C(C)C [TP586] (H-H[Aib]QGTFTSDYSKYLDERAA[Phe(4-CH2NH2)]([AEEA-AEEA-γGlu-C20 diacid])DFVQWLLKT-NH2; N-terminus assumed)
3 | >4.1 | < 5 | < 5 | – | 0.41 | CC(C)C[C@H](NC(=O)[C@H](Cc1ccc(O)cc1)NC(=O)[C@H](CCCCN)NC(=O)[C@H](CO)NC(=O)[C@H](Cc1ccc(O)cc1)NC(=O)[C@H](CC(=O)O)NC(=O)[C@H](CO)NC(=O)[C@@H](NC(=O)[C@H](Cc1ccccc1)NC(=O)[C@@H](NC(=O)CNC(=O)[C@H](CCC(N)=O)NC(=O)C(C)(C)NC(=O)[C@@H](N)Cc1c[nH]cn1)[C@@H](C)O)[C@@H](C)O)C(=O)N[C@@H](CC(=O)O)C(=O)N[C@@H](CCC(=O)O)C(=O)N[C@@H](CCCNC(=N)N)C(=O)N[C@@H](C)C(=O)N[C@@H](C)C(=O)N[C@@H](Cc1ccc(CNC(=O)COCCOCCNC(=O)COCCOCCNC(=O)CC[C@H](NC(=O)CCCCCCCCCCCCCCCCC(=O)O)C(=O)O)cc1)C(=O)N[C@@H](CC(=O)O)C(=O)N[C@@H](Cc1ccccc1)C(=O)N[C@H](C(=O)N[C@@H](CCC(N)=O)C(=O)N[C@@H](Cc1c[nH]c2ccccc12)C(=O)N[C@@H](CC(C)C)C(=O)N[C@@H](CC(C)C)C(=O)N[C@@H](CCCCN)C(=O)N[C@H](C(N)=O)[C@@H](C)O)C(C)C [TP587] (H-H[Aib]QGTFTSDYSKYLDERAA[Phe(4-CH2NH2)]([AEEA-AEEA-γGlu-C18 diacid])DFVQWLLKT-NH2; N-terminus assumed)
4 | 0.9 | < 5 | < 5 | – | – | CC(C)C[C@H](NC(=O)[C@H](Cc1ccc(O)cc1)NC(=O)[C@H](CCCCN)NC(=O)[C@H](CO)NC(=O)[C@H](Cc1ccc(O)cc1)NC(=O)[C@H](CC(=O)O)NC(=O)[C@H](CO)NC(=O)[C@@H](NC(=O)[C@H](Cc1ccccc1)NC(=O)[C@@H](NC(=O)CNC(=O)[C@H](CCC(N)=O)NC(=O)C(C)(C)NC(=O)[C@@H](N)Cc1c[nH]cn1)[C@@H](C)O)[C@@H](C)O)C(=O)N[C@@H](CC(=O)O)C(=O)NC(C)(C)C(=O)N[C@@H](CCCNC(=N)N)C(=O)N[C@@H](C)C(=O)N[C@@H](C)C(=O)N[C@@H](CCCCNC(=O)COCCOCCNC(=O)COCCOCCNC(=O)CC[C@H](NC(=O)CCCCCCCCCCCCCCCCCCC(=O)O)C(=O)O)C(=O)N[C@@H](CC(=O)O)C(=O)N[C@@H](Cc1ccccc1)C(=O)N[C@H](C(=O)N[C@@H](CCC(N)=O)C(=O)N[C@@H](Cc1c[nH]c2ccccc12)C(=O)N[C@@H](CC(C)C)C(=O)N[C@@H](CCS(C)(=O)=O)C(=O)N[C@@](C)(CC(=O)O)C(=O)N[C@H](C(N)=O)[C@@H](C)O)C(C)C [TP588] (H-H[Aib]QGTFTSDYSKYLD[Aib]RAAK([AEEA-AEEA-γGlu-C20 diacid])DFVQWL[Met(O2)][αMeD]T-NH2; N-terminus assumed)

— patent US11566057B2, “Long-acting co-agonists of the glucagon and GLP-1 receptors” (Merck Sharp & Dohme Corp., priority 2017, dated 2023)
